Assay results taken from ChEMBL document CHEMBL4359906, “Design and synthesis of new N-terminal fatty acid modified-antimicrobial peptide analogues with potent in vitro biological activity” (Eur J Med Chem, 2019).
In brackets after ≈: the same amount, converted by molar mass. Activity calls are given as the source filed them. No cut-off for these calls is given here.

Experiments:
[1] = Selectivity index, ratio of MHC10 for human RBC to geometric mean of peptide MIC for gram positive bacteria; format: toxicity; conditions: human red blood cells, read-out: Selectivity Index
Escherichia coli [2] = assay: Induction of membrane disruption in Escherichia coli ATCC 25922 assessed as fracture in membrane at 4 times of MIC after 2 hrs by SEM analysis; format: functional, organism-based
Staphylococcus aureus [3] = assay: Ratio of antibacterial activity against Staphylococcus aureus ATCC 25923 in presence of MgCl2 to antibacterial activity against Staphylococcus aureus ATCC 25923; format: functional
Escherichia coli [4] = assay: Ratio of antibacterial activity against Escherichia coli ATCC 25922 in presence of KCl to antibacterial activity against Escherichia coli ATCC 25922; format: functional
Klebsiella pneumoniae [5] = assay: Potentiation of polymyxin B-induced antibacterial activity against Klebsiella pneumoniae ATCC 700603 assessed as FICI after 18 hrs by checker board assay; format: functional
Escherichia coli [6] = assay: Disruption of membrane integrity in Escherichia coli ATCC 25922 assessed as membrane damage by measuring PI fluorescence incubated for 1 hr by PI dye based flow cytometric analysis; format: functional, organism-based
Escherichia coli [7] = assay: Antibacterial activity against Escherichia coli ATCC 43837 after 18 hrs by CLSI based broth microdilution method; format: functional; conditions: ATCC 43837, 18 h
Escherichia coli [8] = assay: Induction of membrane disruption in Escherichia coli ATCC 25922 assessed as rough membrane surface at 4 times of MIC after 2 hrs by SEM analysis; format: functional, organism-based
Escherichia coli [9] = assay: Antibacterial activity against Escherichia coli ATCC 25922 after 18 hrs by CLSI based broth microdilution method; format: functional; conditions: ATCC 25922, 18 h
Bacillus subtilis = assay: Antibacterial activity against Bacillus subtilis ATCC 23857 after 18 hrs by CLSI based broth microdilution method; format: functional; conditions: ATCC 23857, 18 h
Escherichia coli [10] = assay: Disruption of membrane integrity in Escherichia coli ATCC 25922 assessed as membrane damage by measuring PI fluorescence at 4 times of MIC incubated for 1 hr by PI dye based flow cytometric analysis (reference value: 1.35%); format: functional
Escherichia coli [11] = assay: Induction of inner membrane permeabilization in Escherichia coli ATCC 43837 assessed as increase in ONPG release at 4 times of MIC by ONPG dye based assay; format: organism-based
Escherichia coli [12] = assay: Ratio of antibacterial activity against Escherichia coli ATCC 25922 in presence of FeCl3 to antibacterial activity against Escherichia coli ATCC 25922; format: functional
Escherichia coli [13] = assay: Ratio of antibacterial activity against Escherichia coli ATCC 25922 in presence of MgCl2 to antibacterial activity against Escherichia coli ATCC 25922; format: functional
Staphylococcus aureus [14] = assay: Ratio of antibacterial activity against Staphylococcus aureus ATCC 25923 in presence of KCl to antibacterial activity against Staphylococcus aureus ATCC 25923; format: functional
Escherichia coli [15] = assay: Ratio of antibacterial activity against Escherichia coli ATCC 25922 in presence of NaCl to antibacterial activity against Escherichia coli ATCC 25922; format: functional
Escherichia coli [16] = assay: Antibacterial activity against Escherichia coli ATCC 25922 at 0.5 times MIC incubated for 18 hrs measured for 15 passages by CLSI based broth microdilution method; format: functional, organism-based
Escherichia coli [17] = assay: Induction of membrane disruption in Escherichia coli ATCC 25922 assessed as corrugated membrane surface at 4 times of MIC after 2 hrs by SEM analysis; format: functional, organism-based
Escherichia coli [18] = assay: Disruption of membrane integrity in Escherichia coli ATCC 25922 assessed as membrane damage by measuring PI fluorescence at 2 times of MIC incubated for 1 hr by PI dye based flow cytometric analysis (reference value: 1.35%); format: functional
Escherichia coli [19] = assay: Ratio of MIC for Escherichia coli ATCC 25922 preincubated for 1 hr in presence of 10% mouse serum and measured after 18 hrs to MIC for antibacterial activity against Escherichia coli ATCC 25922 after 18 hrs; format: functional
DNA = assay: Binding affinity to Escherichia coli ATCC 25922 genomic DNA after 30 mins by agarose gel electrophoresis; format: nucleic-acid assay
Escherichia coli [20] = assay: Ratio of MIC for Escherichia coli ATCC 25922 preincubated for 6 hrs in presence of 10% mouse serum and measured after 18 hrs to MIC for antibacterial activity against Escherichia coli ATCC 25922 after 18 hrs; format: functional
Escherichia coli [21] = assay: Induction of membrane disruption in Escherichia coli ATCC 25922 assessed as degeneration in membrane at 4 times of MIC after 2 hrs by SEM analysis; format: functional, organism-based
Pseudomonas aeruginosa [22] = assay: Potentiation of rifampicin-induced antibacterial activity against Pseudomonas aeruginosa ATCC 27853 assessed as FICI after 18 hrs by checker board assay; format: functional
Escherichia coli [23] = assay: Antibiofilm activity against Escherichia coli ATCC 25922 after 24 hrs by crystal violet staining based assay; format: functional, organism-based
Pseudomonas aeruginosa [24] = assay: Antibacterial activity against Pseudomonas aeruginosa ATCC 27853 after 18 hrs by CLSI based broth microdilution method; format: functional; conditions: ATCC 27853, 18 h
Escherichia coli [25] = assay: Antibiofilm activity against Escherichia coli ATCC 25922 at 2 times MIC after 24 hrs by crystal violet staining based assay; format: functional, organism-based
Escherichia coli [26] = assay: Potentiation of rifampicin-induced antibacterial activity against Escherichia coli ATCC 25922 assessed as FICI after 18 hrs by checker board assay; format: functional
Pseudomonas aeruginosa [27] = assay: Antibiofilm activity against Pseudomonas aeruginosa ATCC 27853 at 0.25 to 2 times of MIC after 24 hrs by crystal violet staining based assay; format: functional, organism-based
Escherichia coli [28] = assay: Induction of inner membrane permeabilization in Escherichia coli ATCC 43837 assessed as increase in ONPG release at 1 to 2 times of MIC by ONPG dye based assay; format: organism-based
Staphylococcus aureus [29] = assay: Ratio of antibacterial activity against Staphylococcus aureus ATCC 25923 in presence of FeCl3 to antibacterial activity against Staphylococcus aureus ATCC 25923; format: functional
Pseudomonas aeruginosa [30] = assay: Potentiation of polymyxin B-induced antibacterial activity against Pseudomonas aeruginosa ATCC 27853 assessed as FICI after 18 hrs by checker board assay; format: functional
Staphylococcus aureus [31] = assay: Antibacterial activity against Staphylococcus aureus ATCC 25923 after 18 hrs by CLSI based broth microdilution method; format: functional; conditions: ATCC 25923, 18 h
Staphylococcus aureus [32] = assay: Antibiofilm activity against Staphylococcus aureus ATCC 25923 after 24 hrs by crystal violet staining based assay; format: functional, organism-based
Escherichia coli [33] = assay: Induction of ROS generation in Escherichia coli ATCC 25922; format: functional, organism-based
Escherichia coli [34] = assay: Potentiation of polymyxin B-induced antibacterial activity against Escherichia coli ATCC 25922 assessed as FICI after 18 hrs by checker board assay; format: functional
Klebsiella pneumoniae [35] = assay: Antibacterial activity against Klebsiella pneumoniae ATCC 700603 after 18 hrs by CLSI based broth microdilution method; format: functional; conditions: Klebsiella pneumoniae, 700603, 18 h
[36] = Selectivity index, ratio of MHC10 for human RBC to geometric mean of peptide MIC for gram negative bacteria; format: toxicity; conditions: human red blood cells, read-out: Selectivity Index
Pseudomonas aeruginosa [37] = assay: Antibiofilm activity against Pseudomonas aeruginosa ATCC 27853 after 24 hrs by crystal violet staining based assay; format: functional, organism-based
Escherichia coli [38] = assay: Antimicrobial activity against Escherichia coli ATCC 25922 at 1 mM preincubated for 6 hrs in presence of 2000 ug/ml trypsin and measured after 18 hrs by microplate reader analysis; format: functional, organism-based

For `CCCC(=O)NC(Cc1cn(CCCC[C@H](NC(C)=O)C(=O)NCC(=O)N[C@@H](CC(C)C)C(=O)N[C@@H](CC(C)C)C(=O)N[C@H](CCCCN)C(=O)N[C@@H](CCCNC(=N)N)C(=O)N[C@H](C(=O)N[C@H](CCCCN)C(=O)N[C@H](C(=O)N[C@@H](CC(C)C)C(=O)N[C@@H](CC(C)C)C(N)=O)[C@@H](C)O)[C@@H](C)CC)nn1)C(=O)NCC(=O)N[C@@H](CC(C)C)C(=O)N[C@@H](CC(C)C)C(=O)N[C@H](CCCCN)C(=O)N[C@@H](CCCNC(=N)N)C(=O)N[C@H](C(=O)N[C@H](CCCCN)C(=O)N[C@H](C(=O)N[C@@H](CC(C)C)C(=O)N[C@@H](CC(C)C)C(N)=O)[C@@H](C)O)[C@@H](C)CC` (stereo not given in full), the selectivity ratio [1] was 5.91, the Activity (Escherichia coli [2]) was “Active” and the Ratio (Staphylococcus aureus [3]) was 2 - 4. For the same compound, the Ratio (Escherichia coli [4]) was 2 - 4, the “fractional inhibitory concentration index (FICI)” value (Klebsiella pneumoniae [5]) was 0.1875 and the Activity (Escherichia coli [6]) was “Dose-dependent effect”. The MIC (Escherichia coli [7]) was 8 µM (≈ 21.3 µg/mL), the Activity (Escherichia coli [8]) was “Active” and the MIC (Escherichia coli [9]) was 16 µM (≈ 42.7 µg/mL). For the same compound, the MIC (Bacillus subtilis) was 4 µM (≈ 10.7 µg/mL), the Activity (Escherichia coli [10]) was 43.2% and the Activity (Escherichia coli [11]) was “Active”. For the same compound, the Ratio (Escherichia coli [12]) was 2 - 4, the Ratio (Escherichia coli [13]) was 2 - 4 and the Ratio (Staphylococcus aureus [14]) was 2 - 4. For the same compound, the Ratio (Escherichia coli [15]) was 2 - 4, the Activity (Escherichia coli [16]) was “Active” and the Activity (Escherichia coli [17]) was “Active”. For the same compound, the Activity (Escherichia coli [18]) was 21.2%, the Ratio (Escherichia coli [19]) was 1 and the Activity (DNA) was “Dose-dependent effect”. The Ratio (Escherichia coli [20]) was 1, the Activity (Escherichia coli [21]) was “Active” and the “fractional inhibitory concentration index (FICI)” value (Pseudomonas aeruginosa [22]) was 0.375. For the same compound, the inhibition (Escherichia coli [23]) was “Dose-dependent effect”, the MIC (Pseudomonas aeruginosa [24]) was 8 µM (≈ 21.3 µg/mL) and the inhibition (Escherichia coli [25]) was “Active”. For the same compound, the “fractional inhibitory concentration index (FICI)” value (Escherichia coli [26]) was 0.3125, the inhibition (Pseudomonas aeruginosa [27]) was “Active” and the Activity (Escherichia coli [28]) was “Active”. For the same compound, the Ratio (Staphylococcus aureus [29]) was 2 - 4, the “fractional inhibitory concentration index (FICI)” value (Pseudomonas aeruginosa [30]) was 0.375 and the MIC (Staphylococcus aureus [31]) was 128 µM (≈ 342 µg/mL). The inhibition (Staphylococcus aureus [32]) was “Dose-dependent effect”, the Activity (Escherichia coli [33]) was “Active” and the “fractional inhibitory concentration index (FICI)” value (Escherichia coli [34]) was 0.3125. For the same compound, the MIC (Klebsiella pneumoniae [35]) was 32 µM (≈ 85.4 µg/mL), the selectivity ratio [36] was 32 and the inhibition (Pseudomonas aeruginosa [37]) was “Dose-dependent effect”. For the same compound, the Activity (Escherichia coli [38]) was “Active”.
